Measurements: patent publication US20230085307A1, “PYRIDAZINONE COMPOUND AND HERBICIDE” (NISSAN CHEMICAL CORPORATION, priority 2019, published 2023)

Key:
[1] = tested on: Chinese sprangletop; test: Test Example 3: herbicidal effect by foliage application, Wagner pot (Table 18, symbol D); type: in vivo, chinese sprangletop (Leptochloa chinensis)
Procedure, shortened: (§1)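 Plants were sown in alluvial soil held under 0.1–0.5 cm standing water and grown 14 days in a greenhouse at 25–30 °C. An emulsifiable formulation, water-diluted to the set dose, was then sprayed onto the foliage, and effects were scored three weeks later using previously defined criteria.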

[2] = tested on: velvetleaf; test: Test Example 4: herbicidal effect by soil treatment (Table 19, symbol M); type: in vivo, velvetleaf (Abutilon theophrasti); details: amount of applied herbicide 320 g/ha
Procedure, shortened: (§2)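 Applied as a water-diluted emulsion, the compound was sprayed onto soil covering newly sown seeds. Evaluation came three weeks after application, in a greenhouse held at 25° C. to 30° C.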

[3] = tested on: wild oat; test: Test Example 5: herbicidal effect by foliage application, plastic box (Table 20, symbol I); type: in vivo, wild oat (Avena fatua); details: evaluated three weeks after application
Procedure, shortened: (§3)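 Sow seeds spot-wise in sterilized diluvial soil; cover with ~1.5 cm soil. Grow 14 days in greenhouse, 25° C. to 30° C. Spray foliage with emulsion diluted to predetermined amount. Rate effect after 3 weeks.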

[4] = tested on: Italian ryegrass; test: Test Example 5: herbicidal effect by foliage application, plastic box (Table 20, symbol K); type: in vivo, Italian ryegrass (Lolium multiflorum); details: evaluated three weeks after application
Procedure, shortened: as §3

[5] = tested on: barnyard grass; test: Test Example 5: herbicidal effect by foliage application, plastic box (Table 20, symbol H); type: in vivo, barnyard grass (Echinochloa crus-galli); details: evaluated three weeks after application
Procedure, shortened: as §3

[6] = tested on: lambsquarters; test: Test Example 5: herbicidal effect by foliage application, plastic box (Table 20, symbol O); type: in vivo, lambsquarters (Chenopodium album); details: evaluated three weeks after application
Procedure, shortened: as §3

[7] = tested on: blackgrass; test: Test Example 4: herbicidal effect by soil treatment (Table 19, symbol J); type: in vivo, blackgrass (Alopecurus myosuroides); details: amount of applied herbicide 320 g/ha
Procedure, shortened: as §2

[8] = tested on: green foxtail; test: Test Example 4: herbicidal effect by soil treatment (Table 19, symbol G); type: in vivo, green foxtail (Setaria viridis); details: amount of applied herbicide 320 g/ha
Procedure, shortened: as §2

[9] = tested on: chickweed; test: Test Example 4: herbicidal effect by soil treatment (Table 19, symbol P); type: in vivo, common chickweed (Stellaria media); details: amount of applied herbicide 320 g/ha
Procedure, shortened: as §2

[10] = tested on: rice flat sedge; test: Test Example 3: herbicidal effect by foliage application, Wagner pot (Table 18, symbol E); type: in vivo, rice flat sedge (Cyperus iria)
Procedure, shortened: as §1

[11] = tested on: blackgrass; test: Test Example 5: herbicidal effect by foliage application, plastic box (Table 20, symbol J); type: in vivo, blackgrass (Alopecurus myosuroides); details: evaluated three weeks after application
Procedure, shortened: as §3

[12] = tested on: barnyard grass; test: Test Example 4: herbicidal effect by soil treatment (Table 19, symbol H); type: in vivo, barnyard grass (Echinochloa crus-galli); details: amount of applied herbicide 320 g/ha
Procedure, shortened: as §2

[13] = tested on: persian speedwell; test: Test Example 4: herbicidal effect by soil treatment (Table 19, symbol R); type: in vivo, Persian speedwell (Veronica persica); details: amount of applied herbicide 320 g/ha
Procedure, shortened: as §2

[14] = tested on: chickweed; test: Test Example 5: herbicidal effect by foliage application, plastic box (Table 20, symbol P); type: in vivo, common chickweed (Stellaria media); details: evaluated three weeks after application
Procedure, shortened: as §3

[15] = tested on: false cleavers; test: Test Example 5: herbicidal effect by foliage application, plastic box (Table 20, symbol Q); type: in vivo, false cleavers (Galium spurium); details: evaluated three weeks after application
Procedure, shortened: as §3

[16] = tested on: redroot pigweed; test: Test Example 5: herbicidal effect by foliage application, plastic box (Table 20, symbol N); type: in vivo, redroot pigweed (Amaranthus retroflexus); details: evaluated three weeks after application
Procedure, shortened: as §3

[17] = tested on: wild oat; test: Test Example 4: herbicidal effect by soil treatment (Table 19, symbol I); type: in vivo, wild oat (Avena fatua); details: amount of applied herbicide 320 g/ha
Procedure, shortened: as §2

[18] = tested on: windgrass; test: Test Example 4: herbicidal effect by soil treatment (Table 19, symbol L); type: in vivo, windgrass (Apera spica-venti); details: amount of applied herbicide 320 g/ha
Procedure, shortened: as §2

[19] = tested on: velvetleaf; test: Test Example 5: herbicidal effect by foliage application, plastic box (Table 20, symbol M); type: in vivo, velvetleaf (Abutilon theophrasti); details: evaluated three weeks after application
Procedure, shortened: as §3

[20] = tested on: green foxtail; test: Test Example 5: herbicidal effect by foliage application, plastic box (Table 20, symbol G); type: in vivo, green foxtail (Setaria viridis); details: evaluated three weeks after application
Procedure, shortened: as §3

[21] = tested on: Italian ryegrass; test: Test Example 4: herbicidal effect by soil treatment (Table 19, symbol K); type: in vivo, Italian ryegrass (Lolium multiflorum); details: amount of applied herbicide 320 g/ha
Procedure, shortened: as §2

[22] = tested on: southern crabgrass; test: Test Example 5: herbicidal effect by foliage application, plastic box (Table 20, symbol F); type: in vivo, southern crabgrass (Digitaria ciliaris); details: evaluated three weeks after application
Procedure, shortened: as §3

[23] = tested on: lambsquarters; test: Test Example 4: herbicidal effect by soil treatment (Table 19, symbol O); type: in vivo, lambsquarters (Chenopodium album); details: amount of applied herbicide 320 g/ha
Procedure, shortened: as §2

[24] = tested on: redroot pigweed; test: Test Example 4: herbicidal effect by soil treatment (Table 19, symbol N); type: in vivo, redroot pigweed (Amaranthus retroflexus); details: amount of applied herbicide 320 g/ha
Procedure, shortened: as §2

[25] = tested on: windgrass; test: Test Example 5: herbicidal effect by foliage application, plastic box (Table 20, symbol L); type: in vivo, windgrass (Apera spica-venti); details: evaluated three weeks after application
Procedure, shortened: as §3

[26] = tested on: southern crabgrass; test: Test Example 4: herbicidal effect by soil treatment (Table 19, symbol F); type: in vivo, southern crabgrass (Digitaria ciliaris); details: amount of applied herbicide 320 g/ha
Procedure, shortened: as §2

[27] = tested on: persian speedwell; test: Test Example 5: herbicidal effect by foliage application, plastic box (Table 20, symbol R); type: in vivo, Persian speedwell (Veronica persica); details: evaluated three weeks after application
Procedure, shortened: as §3

[28] = tested on: barnyard grass; test: Test Example 3: herbicidal effect by foliage application, Wagner pot (Table 18, symbol H); type: in vivo, barnyard grass (Echinochloa crus-galli)
Procedure, shortened: as §1

[29] = amount of applied herbicide 320 g/ha
[30] = foliage application, AAH 320 g/ha
[31] = amount of applied herbicide 320 g/ha, foliage application after 14-day growth

Compound: Cc1nn(C)c(=O)c(-c2c(-c3ccc(OC(F)F)cc3)sc3ccc(F)cc23)c1OS(=O)(=O)C(C)C [2-309]
- herbicidal effect on D: Chinese sprangletop [1, 29]: 3 (Herbicidal rate of 40% or more and less than 70%)
- herbicidal effect on M: velvetleaf [2]: 1 (Herbicidal rate of 5% or more and less than 20%)
- I: wild oat, herbicidal effect (criteria 0-5) [3, 30]: 1 (Herbicidal rate of 5% or more and less than 20%)
- K: Italian ryegrass, herbicidal effect (criteria 0-5) [4, 30]: 4 (Herbicidal rate of 70% or more and less than 90%)
- H: barnyard grass, herbicidal effect (criteria 0-5) [5, 30]: 5 (Herbicidal rate of 90% or more (almost completely withered))
- O: lambsquarters, herbicidal effect (criteria 0-5) [6, 30]: 5 (Herbicidal rate of 90% or more (almost completely withered))
- herbicidal effect on J: blackgrass [7]: 0 (Herbicidal rate of 5% or less (almost no effect))
- herbicidal effect on G: green foxtail [8]: 0 (Herbicidal rate of 5% or less (almost no effect))
- herbicidal effect on P: chickweed [9]: 3 (Herbicidal rate of 40% or more and less than 70%)
- herbicidal effect on E: rice flat sedge [10, 29]: 5 (Herbicidal rate of 90% or more (almost completely withered))
- J: blackgrass, herbicidal effect (criteria 0-5) [11, 30]: 3 (Herbicidal rate of 40% or more and less than 70%)
- herbicidal effect on H: barnyard grass [12]: 0 (Herbicidal rate of 5% or less (almost no effect))
- herbicidal effect on R: persian speedwell [13]: 5 (Herbicidal rate of 90% or more (almost completely withered))
- P: chickweed, herbicidal effect (criteria 0-5) [14, 30]: 5 (Herbicidal rate of 90% or more (almost completely withered))
- Q: false cleavers, herbicidal effect (criteria 0-5) [15, 30]: 4 (Herbicidal rate of 70% or more and less than 90%)
- N: redroot pigweed, herbicidal effect (criteria 0-5) [16, 30]: 5 (Herbicidal rate of 90% or more (almost completely withered))
- herbicidal effect on I: wild oat [17]: 0 (Herbicidal rate of 5% or less (almost no effect))
- herbicidal effect on L: windgrass [18]: 0 (Herbicidal rate of 5% or less (almost no effect))
- M: velvetleaf, herbicidal effect (criteria 0-5) [19, 30]: 5 (Herbicidal rate of 90% or more (almost completely withered))
- G: green foxtail, herbicidal effect (criteria 0-5) [20, 30]: 5 (Herbicidal rate of 90% or more (almost completely withered))
- herbicidal effect on K: Italian ryegrass [21]: 0 (Herbicidal rate of 5% or less (almost no effect))
- F: southern crabgrass, herbicidal effect (criteria 0-5) [22, 30]: 0 (Herbicidal rate of 5% or less (almost no effect))
- herbicidal effect on O: lambsquarters [23]: 4 (Herbicidal rate of 70% or more and less than 90%)
- herbicidal effect on N: redroot pigweed [24]: 5 (Herbicidal rate of 90% or more (almost completely withered))
- L: windgrass, herbicidal effect (criteria 0-5) [25, 30]: 1 (Herbicidal rate of 5% or more and less than 20%)
- herbicidal effect on F: southern crabgrass [26]: 0 (Herbicidal rate of 5% or less (almost no effect))
- R: persian speedwell, herbicidal effect (criteria 0-5) [27, 30]: 5 (Herbicidal rate of 90% or more (almost completely withered))
- herbicidal effect on H: barnyard grass [28, 29]: 5 (Herbicidal rate of 90% or more (almost completely withered))

Compound: COc1ccc(-c2sc3cc(F)c(F)cc3c2-c2c(O)c(C)nn(C)c2=O)cc1 [5-014]
- herbicidal effect on Chinese sprangletop (D) ([1]; 320 g/ha): 0 (Herbicidal rate of 5% or less (almost no effect))
- M: velvetleaf, herbicidal effect grade [2]: 4 (Herbicidal rate of 70% or more and less than 90%)
- Herbicidal effect by foliage application, I: wild oat [3, 31]: 0 (Herbicidal rate of 5% or less (almost no effect))
- Herbicidal effect by foliage application, K: Italian ryegrass [4, 31]: 4 (Herbicidal rate of 70% or more and less than 90%)
- Herbicidal effect by foliage application, H: barnyard grass [5, 31]: 2 (Herbicidal rate of 20% or more and less than 40%)
- Herbicidal effect by foliage application, O: lambsquarters [6, 31]: 5 (Herbicidal rate of 90% or more (almost completely withered))
- J: blackgrass, herbicidal effect grade [7]: 0 (Herbicidal rate of 5% or less (almost no effect))
- G: green foxtail, herbicidal effect grade [8]: 1 (Herbicidal rate of 5% or more and less than 20%)
- P: chickweed, herbicidal effect grade [9]: 3 (Herbicidal rate of 40% or more and less than 70%)
- herbicidal effect on rice flat sedge (E) ([10]; 320 g/ha): 5 (Herbicidal rate of 90% or more (almost completely withered))
- Herbicidal effect by foliage application, J: blackgrass [11, 31]: 0 (Herbicidal rate of 5% or less (almost no effect))
- H: barnyard grass, herbicidal effect grade [12]: 2 (Herbicidal rate of 20% or more and less than 40%)
- R: persian speedwell, herbicidal effect grade [13]: 5 (Herbicidal rate of 90% or more (almost completely withered))
- Herbicidal effect by foliage application, P: chickweed [14, 31]: 5 (Herbicidal rate of 90% or more (almost completely withered))
- Herbicidal effect by foliage application, Q: false cleavers [15, 31]: 4 (Herbicidal rate of 70% or more and less than 90%)
- Herbicidal effect by foliage application, N: redroot pigweed [16, 31]: 5 (Herbicidal rate of 90% or more (almost completely withered))
- I: wild oat, herbicidal effect grade [17]: 0 (Herbicidal rate of 5% or less (almost no effect))
- L: windgrass, herbicidal effect grade [18]: 0 (Herbicidal rate of 5% or less (almost no effect))
- Herbicidal effect by foliage application, M: velvetleaf [19, 31]: 5 (Herbicidal rate of 90% or more (almost completely withered))
- Herbicidal effect by foliage application, G: green foxtail [20, 31]: 2 (Herbicidal rate of 20% or more and less than 40%)
- K: Italian ryegrass, herbicidal effect grade [21]: 0 (Herbicidal rate of 5% or less (almost no effect))
- Herbicidal effect by foliage application, F: southern crabgrass [22, 31]: 3 (Herbicidal rate of 40% or more and less than 70%)
- O: lambsquarters, herbicidal effect grade [23]: 5 (Herbicidal rate of 90% or more (almost completely withered))
- N: redroot pigweed, herbicidal effect grade [24]: 5 (Herbicidal rate of 90% or more (almost completely withered))
- Herbicidal effect by foliage application, L: windgrass [25, 31]: 0 (Herbicidal rate of 5% or less (almost no effect))
- F: southern crabgrass, herbicidal effect grade [26]: 0 (Herbicidal rate of 5% or less (almost no effect))
- Herbicidal effect by foliage application, R: persian speedwell [27, 31]: 5 (Herbicidal rate of 90% or more (almost completely withered))
- herbicidal effect on barnyard grass (H) ([28]; 320 g/ha): 4 (Herbicidal rate of 70% or more and less than 90%)
